Experimental data: US20240122941A1, “THERAPY BASED ON SYNTHETIC LETHALITY IN SWI/SNF COMPLEX-DYSFUNCTION CANCER” (NATIONAL CANCER CENTER, priority 2020, published 2024)
Like-named read-outs stand apart in the source and are kept apart here.

Tests used:
[1] = test system: H647 cells (SMARCA4 wild-type); assay: Cell growth suppression experiment (CellTiter-Glo), H647 cells; format: cell-based
Method: (§1) Cytotoxic activity of a CBP/P300 inhibitor on SMARCA4 deficient cells, i.e., H1693 cells (pulmonary adenocarcinoma derived) and H1819 cells (pulmonary adenocarcinoma derived), and SMARCA4 wild-type cells, i.e., H647 cells.
(§2) H1693 cells, H1819 cells, and H647 cells were obtained from the ATCC. The H1693 cells and H647 cells were cultured under 5% CO 2 conditions at 37° C. in a 10% fetal bovine serum and 1% penicillin/streptomycin-containing RPMI1640 medium. H1819 cells were cultured under 5% CO2 conditions at 37° C. in a 5% fetal bovine serum and 1% penicillin/streptomycin-containing RPMI1640 medium.
(§3) A 384-well plate was seeded with 500 cells per well. […] After completion of culture, the cell survival rate was measured using CellTiter-Glo Luminescent Cell Viability Assay (Promega, G7570).

[2] = test system: SMARCB1 deficient cells, i.e., G-401 cells, G-402 cells, and CHLA-06-ATRT cells; assay: Cell growth suppression experiment, SMARCB1 deficient cells (summary of Example 1); conditions: G-401, G-402 and CHLA-06-ATRT cells versus 786-O cells; result in words
[3] = test system: CHLA-06-ATRT cells (atypical teratoid/rhabdoid tumor derived, SMARCB1 deficient); assay: Cell growth suppression experiment (CellTiter-Glo), CHLA-06-ATRT cells; conditions: 72 h, read-out: IC50 CHLA-06-ATRT
[4] = test system: 786-O cells (renal cancer derived, SMARCB1 wild-type); assay: Cell growth suppression experiment (CellTiter-Glo), 786-O cells; conditions: for IC50: read-out: IC50 786-O
[5] = test system: DMS114 cells (small cell lung cancer derived, SMARCA2/A4 deficient); assay: Cell growth suppression experiment (CellTiter-Glo), DMS114 cells; format: cell-based; conditions: DMS114 cells, cultured for 6 days, CellTiter-Glo
[6] = test system: H1693 cells (pulmonary adenocarcinoma derived, SMARCA4 deficient); assay: Cell growth suppression experiment (CellTiter-Glo), H1693 cells; format: cell-based; conditions: Homo sapiens, NCI-H1693, 72 h, cultured for 3 days
Method: as §1, §2, §3

[7] = test system: H1819 cells (pulmonary adenocarcinoma derived, SMARCA4 deficient); assay: Cell growth suppression experiment (CellTiter-Glo), H1819 cells; format: cell-based; conditions: NCI-H1819, 72 h, cultured for 3 days
Method: as §1, §2, §3

[8] = test system: TOV112D cells (small cell ovarian cancer derived, SMARCA2/A4 deficient); assay: Cell growth suppression experiment (CellTiter-Glo), TOV112D cells; format: cell-based; conditions: cultured for 6 days, CellTiter-Glo;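 also: luminescent viability read-out of TOV112D cells grown in DMEM-F12 with 10% fetal bovine serum, compound exposure starting one day after plating, DMSO at 0.1% final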
[9] = test system: SMARCA4 deficient cells, i.e., H1693 cells and H1819 cells; assay: Cell growth suppression experiment, SMARCA4 deficient cells (summary of Example 11); format: cell-based; conditions: result in words
Method: as §1, §2, §3

[10] = test system: H460 cells (pulmonary adenocarcinoma derived, SMARCA2/A4 wild-type); assay: Cell growth suppression experiment (CellTiter-Glo), H460 cells; format: cell-based; conditions: for IC50: cultured for 6 days, CellTiter-Glo;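 as to all read-outs here: luminescent viability read-out, compound added one day after seeding at 0.1% final DMSO, cells grown in DMEM-F12 with 10% fetal bovine serum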
[11] = test system: ARID1 deficient cancer cell group versus ARID1 wild-type cell group; assay: Experiment comparing sensitivity depending on the presence/absence of ARID1; format: cell-based; conditions: 6 days culture, CellTiter-Glo, FIG. 12; result in words
Description: Cytotoxic activity of a CBP/P300 inhibitor on ARID1 deficient cancer cells, i.e., A2780 cells (ovarian cancer derived), RMG-V cells (ovarian cancer derived), TOV21G cells (ovarian cancer derived), and OVISE cells (ovarian cancer derived), and ARID1 wild-type cells, i.e., H1048 cells, H460 cells, 786-O cells, H2228 cells, H2009 cells, and H358 cells, was compared.

[12] = test system: SMARCA2/A4 deficient cells, i.e., H23 cells, DMS114 cells, and TOV112D cells; assay: Cell growth suppression experiment, SMARCA2/A4 deficient cells (summary of Example 8); format: cell-based; conditions: H23, DMS114 and TOV112D cells versus H460 cells; result in words
Method: Cytotoxic activity of a CBP/P300 on SMARCA2/A4 deficient cells, i.e., H23 cells (pulmonary adenocarcinoma derived), TOV112D cells (small cell ovarian cancer derived), and DMS114 cells (small cell lung cancer derived), and SMARCA2/A4 wild-type cells, i.e., H460 cells (pulmonary adenocarcinoma derived) was compared.
H23 cells, TOV112D cells, DMS114 cells, and H460 cells were cultured under 5% CO2 conditions at 37° C. in a 10% fetal bovine serum and 1% penicillin/streptomycin-containing DMEM-F12 medium.
Cells were seed on a 96-well plate at 250 to 500 cells per well. […] After completion of culture, the cell survival rate was measured using CellTiter-Glo Luminescent Cell Viability Assay (Promega, G770).

[13] = test system: JMU-RTK-2 cells (malignant rhabdoid tumor derived, SMARCB1 deficient); assay: Selectivity in cell growth suppression, JMU-RTK-2 cells; conditions: read-out: JMU-RTK-2 IC50
[14] = test system: H23 cells (pulmonary adenocarcinoma derived, SMARCA2/A4 deficient); assay: Cell growth suppression experiment (CellTiter-Glo), H23 cells; format: cell-based; conditions: cultured for 6 days, CellTiter-Glo;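 also: compounds tested as CBP/P300 agents, added one day after plating in 96-well plates with DMEM-F12 plus 10% fetal bovine serum, 0.1% DMSO final, luminescent viability read-out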
[15] = test system: G-401 cells (malignant rhabdoid tumor derived, SMARCB1 deficient); assay: Cell growth suppression experiment (CellTiter-Glo), G-401 cells; conditions: read-out: IC50 G-401
[16] = test system: JMU-RTK-2+SMARCB1 cells (JMU-RTK-2 cells overexpressing SMARCB1); assay: Selectivity in cell growth suppression, JMU-RTK-2+SMARCB1 cells; conditions: read-out: JMU-RTK-2 + SMARCB1 IC50
[17] = test system: G-402 cells (malignant rhabdoid tumor derived, SMARCB1 deficient); assay: Cell growth suppression experiment (CellTiter-Glo), G-402 cells; conditions: Homo sapiens, G-402, 72 h, read-out: IC50 G-402
[18] = test system: SMARCB1 deficient cell group versus SMARCB1 wild-type cell group; assay: Experiment comparing sensitivity depending on the presence/absence of SMARCB1; format: cell-based; conditions: 6 days culture, CellTiter-Glo, FIG. 3; result in words
Description: Cytotoxic activity of a CBP/P300 inhibitor on SMARCB1 deficient cells, i.e., G-401 cells (malignant rhabdoid tumor derived), G-402 cells (malignant rhabdoid tumor derived), JMU-RTK-2 cells (malignant rhabdoid tumor derived), and HS-EU-1 cells (epithelioid sarcoma derived), and SMARCB1 wild-type cells, i.e., 786-O cells (renal cancer derived), VMRC-RCZ cells (renal cancer derived), Caki-1 cells (renal cancer derived), H446 cells (lung cancer derived), ES2 cells (ovarian cancer derived), H460 cells (lung cancer derived), H2228 cells (lung cancer derived), HEK293T cells (normal kidney tissue derived), and H358 cells (lung cancer derived) was compared.

Structure (SMILES): CNC(=O)Cn1cc(-c2ccc3c(c2)C(F)CC32NC(=O)N(CC(=O)N(Cc3ccc(F)cc3)[C@@H](C)C(F)(F)F)C2=O)cn1 (single isomer, unassigned) [Compound 4]
- cell survival rate (%) at treatment with 10 μM, H647 ([1]; H647 cells, 10 μM, 3 days): 60%
- IC50 ([1]; Homo sapiens, NCI-H647, 72 h, H647 cells, cultured for 3 days, CellTiter-Glo): > 10000 nM
- cell growth suppression effect on SMARCA4 expressing H647 cells ([1]; result in words): hardly any cell growth suppression effect
- cell growth suppression effect on SMARCB1 deficient cells [2]: selective and potent Cell growth suppression effect
- IC50 [3]: 180 nM
- cell survival rate (%) at treatment with 10 μM, 786-O ([4]; 786-O cells, 10 μM (maximum treatment concentration), 3 days): 93%
- IC50 ([4]; 786-O cells, cultured for 3 days, CellTiter-Glo cell survival): > 10000 nM
- IC50 [5]: 37.4 nM
- IC50 [6]: 128 nM
- IC50 [7]: 5330 nM
- IC50 [8]: 142 nM
- cell growth suppression effect on SMARCA4 deficient cells [9]: selective and potent cell growth suppression effect
- cell survival rate (%) at treatment with 10 μM, H460 ([10]; 10 μM, 6 days): 78%
- IC50 [10]: > 10000 nM
- IC50 value for the ARID1 deficient cancer cell group compared with the ARID1 wild-type cell group [11]: less than the IC50 value for the ARID1 wild-type cell group
- cell growth suppression effect on SMARCA2/A4 deficient cells [12]: particularly selective and potent cell growth suppression effect
- IC50 ([13]; JMU-RTK-2 cells, cultured for 6 days, CellTiter-Glo): 9.9 nM
- IC50 [14]: 248 nM
- IC50 ([15]; G-401 cells, cultured for 3 days, CellTiter-Glo cell survival): 18 nM
- IC50 ([16]; JMU-RTK-2+SMARCB1 cells, cultured for 6 days, CellTiter-Glo): 1400 nM

Structure (SMILES): CNC(=O)Nc1ccc2c(c1)CC[C@]21OC(=O)N(CC(=O)N(Cc2ccc(F)cc2)[C@@H](C)C(F)(F)F)C1=O [Compound 16]
- IC50 [17]: 8900 nM
- cell growth suppression effect on SMARCB1 deficient cells [2]: selective and potent Cell growth suppression effect
- IC50 ([4]; Homo sapiens, 786-0, 72 h): > 10000 nM
- viability at 10 µM ([4]; Homo sapiens, 786-0, 72 h, read-out: cell survival rate (%) at treatment with 10 μM, 786-O): 94%
- IC50 ([5]; Homo sapiens, DMS-114, 144 h): 280 nM
- IC50 ([8]; Homo sapiens, 144 h): 435 nM
- IC50 value for the SMARCB1 deficient cell group compared with the SMARCB1 wild-type cell group [18]: less than the IC50 value for the SMARCB1 wild-type cell group
- viability at 10 µM ([10]; Homo sapiens, NCI-H460, 144 h, 10 μM, 6 days, read-out: cell survival rate (%) at treatment with 10 μM, H460): 62%
- IC50 ([10]; Homo sapiens, NCI-H460, 144 h): > 10000 nM
- IC50 value for the ARID1 deficient cancer cell group compared with the ARID1 wild-type cell group [11]: less than the IC50 value for the ARID1 wild-type cell group
- cell growth suppression effect on SMARCA2/A4 deficient cells [12]: particularly selective and potent cell growth suppression effect
- IC50 ([13]; 144 h): 130 nM
- IC50 ([14]; Homo sapiens, NCI-H23, 144 h): 867 nM
- IC50 ([15]; Homo sapiens, G-401, 72 h): 350 nM
- IC50 ([16]; 144 h): 13000 nM
